DC50 and Emax data for 16 compounds are collected here from patent US20260014147A1, “STAT6 DEGRADERS” (Gilead Sciences, Inc., priority 2024, published 2026).

One assay addresses T1, STAT6 (endogenous, HiBiT-tagged) in HeLa LgBiT clone 4.14 cells (Homo sapiens, UniProt P42226).
T1 construct: These cells express endogenous STAT6; host or cells: HeLa LgBiT clone 4.14
T1 sequence (P42226 1-847): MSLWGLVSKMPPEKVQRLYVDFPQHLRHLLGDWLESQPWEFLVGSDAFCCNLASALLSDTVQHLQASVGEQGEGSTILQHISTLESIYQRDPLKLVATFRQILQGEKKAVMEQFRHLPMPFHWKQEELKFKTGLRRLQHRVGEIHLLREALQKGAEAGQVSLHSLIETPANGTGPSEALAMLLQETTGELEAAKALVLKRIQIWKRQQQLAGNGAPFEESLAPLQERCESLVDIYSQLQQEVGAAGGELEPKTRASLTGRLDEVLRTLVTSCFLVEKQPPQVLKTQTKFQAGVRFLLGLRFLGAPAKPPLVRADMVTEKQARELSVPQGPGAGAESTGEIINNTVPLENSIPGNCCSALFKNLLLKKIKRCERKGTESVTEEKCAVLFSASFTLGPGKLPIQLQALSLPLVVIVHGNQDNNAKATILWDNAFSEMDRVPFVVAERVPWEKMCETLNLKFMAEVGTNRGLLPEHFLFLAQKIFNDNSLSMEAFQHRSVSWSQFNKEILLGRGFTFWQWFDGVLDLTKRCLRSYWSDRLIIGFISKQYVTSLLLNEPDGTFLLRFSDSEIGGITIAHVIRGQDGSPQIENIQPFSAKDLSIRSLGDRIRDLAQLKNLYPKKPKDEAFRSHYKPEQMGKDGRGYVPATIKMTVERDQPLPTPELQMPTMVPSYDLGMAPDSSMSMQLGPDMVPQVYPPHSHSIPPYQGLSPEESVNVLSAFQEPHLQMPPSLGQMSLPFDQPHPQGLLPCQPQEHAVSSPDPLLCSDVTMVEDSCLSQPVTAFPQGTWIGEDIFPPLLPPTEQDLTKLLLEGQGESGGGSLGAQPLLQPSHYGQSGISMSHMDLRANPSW
The assay is described as follows: STAT6 Degrader Assay (HiBiT based, HeLa LgBiT clone 4.14 cells, luminescence, DC50). The assay is classed as cell-based. The note with it: DC50 provided for test compounds with >80% Emax, geometric mean, read-out: STAT6 degradation DC50. As for the experimental part:
This was a HiBit based assay. A HeLa cell line stably transfected with a small protein, LgBit (Large Bit) was obtained from Promega. These cells express endogenous STAT6. A small 11 amino acid gene sequence (HiBiT) was inserted in the STAT6 gene using CRISPR technology. Once STAT6 protein is expressed in the cells, the HiBiT sequence will bind the LgBit in the cells resulting in a functional NanoBiT protein, giving a luminescent tag to STAT6. Single cell clones were prepared and the clone 4.14 was selected for the assay based on that clone showing high luminescence, high STAT6 phosphorylation upon stimulation with IL-4, and inhibition of luminescence when cells were treated with STAT6 siRNA. HeLa LgBiT clone 4.14 cells were suspended in DMEM with 10% FCS, 1% Pen/Strep, Na-pyrovate and Hygromycin B, at a concentration of […]. 5000 cells were added pr well of a 384 well plate and 20 nL of compound was added by Echo® liquid handler. NN6394A (terfenadine, a toxic compound) was added to control wells at 50 µM concentration to establish the assay window. In these wells the cells are dead which equals 100% degradation of STAT6. After 4-24 h of incubation at 37° C. under 5% CO2/95% air, […] substrate (Nano-GLO®) was added to the wells and the plates were centrifuged and incubated for 0.5 h. The luminescence in the wells as a measure of non-degraded STAT6 was measured in a plate reader (BMG Pherastar FSX). The dose-response curves for Examples 2a2, 2t1, 2 h3, and 2r1 are shown below (where percent degradation is plotted vs. test compound concentration in M on a log-scale).
As a reminder, the DC50 is the midpoint of the concentration-degradation curve. Regarding `CNc1ccc(-c2ccnc3c2cc([C@H](C)N2CCC(c4ccc(C(=O)N5CCn6nc(CN7CCC(c8ccc(NC9CCC(=O)NC9=O)cc8F)CC7)cc6C5)cc4)CC2)n3C)cn1` (mixture of isomers) [Example 2c41, 3-((3-fluoro-4-(1-((5-(4-(1-((S)-1-(1-methyl-4-(6-(methylamino)pyridin-3-yl)-1H-pyrrolo[2,3-b]pyridin-2-yl)ethyl)piperidin-4-yl)benzoyl)-4,5,6,7-tetrahydropyrazolo[1,5-a]pyrazin-2-yl)methyl)piperidin-4-yl)phenyl)amino)piperidine-2,6-dione], the DC50 was found to be 3.3 nM.

Regarding `Cn1c(CN2CCC(c3ccc(C(=O)N4CCC(CN5CCN(c6ccc(NC7CCC(=O)NC7=O)cc6F)CC5)CC4)cc3)CC2)cc2c(-c3ccc4[nH]ncc4c3)ccnc21` (single isomer, unassigned) [Example 2c6], the DC50 amounted to 22.5 nM.

With `CC(c1cc2c(-c3ccc(N)nc3)ccnc2n1C)N1CCC(c2ccc(C(=O)N3CCC(CN4CCN(c5ccc(N[C@H]6CCC(=O)NC6=O)cc5F)CC4)CC3)cc2)CC1` (single isomer, unassigned) [Example 2c11], the DC50 was found to be 11.2 nM.

Take `CC(c1cc2c(-c3ccc(N)nc3)ccnc2n1C)N1CCC(c2ccc(C(=O)N3CCC(CN4CCN(c5ccc(N[C@@H]6CCC(=O)NC6=O)cc5F)CC4)CC3)cc2)CC1` (single isomer, unassigned) [Example 2c12]: the DC50 turned out to be 17.7 nM.

With `CNc1ccc(-c2ccnc3c2cc([C@H](C)N2CCC(c4ccc(C(=O)N5CCn6nc(CN7CCC(c8ccc(N[C@H]9CCC(=O)NC9=O)cc8F)CC7)cc6C5)cc4)CC2)n3C)cn1` (single isomer, unassigned) [Example 2c42], the DC50 was 5.4 nM.

For `CNc1ccc(-c2ccnc3c2cc([C@H](C)N2CCC(c4ccc(C(=O)N5CCn6nc(CN7CCC(c8ccc(N[C@@H]9CCC(=O)NC9=O)cc8F)CC7)cc6C5)cc4)CC2)n3C)cn1` (single isomer, unassigned) [Example 2c43], the DC50 was 1.6 nM.

Turning to `COC(C)c1nc2cc(-c3ccnc4c3cc([C@H](C)N3CCC(c5ccc(C(=O)N6CCC(CN7CCN(c8ccc(NC9CCC(=O)NC9=O)cc8F)CC7)CC6)cc5)CC3)n4C)ccc2[nH]1` (stereo in doubt) [Example 2c21, 3-((3-fluoro-4-(4-((1-(4-(1-((S)-1-(4-(2-((R)-1-methoxyethyl)-1H-benzo[d]imidazol-5-yl)-1-methyl-1H-pyrrolo[2,3-b]pyridin-2-yl)ethyl)piperidin-4-yl)benzoyl)piperidin-4-yl)methyl)piperazin-1-yl)phenyl)amino)piperidine-2,6-dione], the DC50 stood at 4.4 nM.

Take `Cn1c(CN2CCC(c3ccc(C(=O)N4CCC(CN5CCN(c6ccc(NC7CCC(=O)NC7=O)cc6)CC5)CC4)cc3)CC2)cc2c(-c3ccc4[nH]ncc4c3)ccnc21` (stereo not shown) [Example 2b1, 3-((4-(4-((1-(4-(1-((4-(1H-indazol-5-yl)-1-methyl-1H-pyrrolo[2,3-b]pyridin-2-yl)methyl)piperidin-4-yl)benzoyl)piperidin-4-yl)methyl)piperazin-1-yl)phenyl)amino)piperidine-2,6-dione]: the DC50 was 19.2 nM.

Regarding `CC(c1cc2c(-c3ccc(N)nc3)ccnc2n1C)N1CCC(c2ccc(C(=O)N3CCC(CN4CCN(c5ccc(NC6CCC(=O)NC6=O)cc5F)CC4)CC3)cc2)CC1` (stereo not shown) [Example 2c10, 3-((4-(4-((1-(4-(1-(1-(4-(6-aminopyridin-3-yl)-1-methyl-1H-pyrrolo[2,3-b]pyridin-2-yl)-ethyl)-piperidin-4-yl)benzoyl)piperidin-4-yl)methyl)piperazin-1-yl)-3-fluorophenyl)amino)piperidine-2,6-dione], the DC50 was determined as 14.1 nM.

Staying with this assay, now noted: Emax provided for test compounds with <80% Emax (and 2c15), geometric mean, read-out: STAT6 degradation Emax.
What is called Emax is the size of the effect at its maximum, as opposed to the concentration needed. Regarding `Cn1c(CN2CCC(c3ccc(C(=O)N4CCC(CN5CCN(c6ccc(N[C@H]7CCC(=O)NC7=O)cc6F)CC5)CC4)cc3)CC2)cc2c(-c3ccc4[nH]ncc4c3)ccnc21` (single isomer, unassigned) [Example 2c5], the Emax was 70 to 80%.

For the compound `Cn1c(CN2CCC(c3ccc(C(=O)N4CCC(CN5CCN(c6ccc(NC7CCC(=O)NC7=O)c(F)c6)CC5)CC4)cc3)CC2)cc2c(-c3ccc4[nH]ncc4c3)ccnc21` (stereo not shown) [Example 2b2, 3-((4-(4-((1-(4-(1-((4-(1H-indazol-5-yl)-1-methyl-1H-pyrrolo[2,3-b]pyridin-2-yl)methyl)piperidin-4-yl)benzoyl)piperidin-4-yl)methyl)piperazin-1-yl)-2-fluorophenyl)amino)piperidine-2,6-dione], the Emax was 70 to 80%.

In the case of `COCc1nc2cc(-c3ccnc4c3cc(CN3CCC(c5ccc(C(=O)N6CCC(CN7CCN(c8ccc(NC9CCC(=O)NC9=O)c(F)c8)CC7)CC6)cc5)CC3)n4C)ccc2[nH]1` (stereo not shown) [Example 2b3, 3-((2-fluoro-4-(4-((1-(4-(1-((4-(2-(methoxymethyl)-1H-benzo[d]imidazol-5-yl)-1-methyl-1H-pyrrolo[2,3-b]pyridin-2-yl)methyl)piperidin-4-yl)benzoyl)piperidin-4-yl)methyl)piperazin-1-yl)phenyl)amino)piperidine-2,6-dione], the maximum response (Emax) lay within 70 to 80%.

For the compound `Cn1c(CN2CCC(c3ccc(C(=O)N4CCC(CN5CCN(c6ccc(NC7CCC(=O)NC7=O)cc6F)CC5)CC4)cc3)CC2)cc2c(-c3ccc(N)nc3)ccnc21` (stereo not shown) [Example 2c2, 3-((4-(4-((1-(4-(1-((4-(6-aminopyridin-3-yl)-1-methyl-1H-pyrrolo[2,3-b]pyridin-2-yl)methyl)-piperidin-4-yl)benzoyl)piperidin-4-yl)methyl)piperazin-1-yl)-3-fluorophenyl)amino)piperidine-2,6-dione], the Emax lay within 50 to 60%.

Take `COCc1nc2cc(-c3ccnc4c3cc(CN3CCC(c5ccc(C(=O)N6CCC(CN7CCN(c8ccc(NC9CCC(=O)NC9=O)cc8F)CC7)CC6)cc5)CC3)n4C)ccc2[nH]1` (stereo not shown) [Example 2c4, 3-((3-fluoro-4-(4-((1-(4-(1-((4-(2-(methoxymethyl)-1H-benzo[d]imidazol-5-yl)-1-methyl-1H-pyrrolo[2,3-b]pyridin-2-yl)methyl)piperidin-4-yl)benzoyl)piperidin-4-yl)methyl)piperazin-1-yl)phenyl)-amino)piperidine-2,6-dione]: the Emax was in the range of 70 to 80%.

For the compound `Cc1nc(N)ccc1-c1ccnc2c1cc(CN1CCC(c3ccc(C(=O)N4CCC(CN5CCN(c6ccc(NC7CCC(=O)NC7=O)cc6F)CC5)CC4)cc3)CC1)n2C` (stereo not shown) [Example 2c7, 3-((4-(4-((1-(4-(1-((4-(6-amino-2-methylpyridin-3-yl)-1-methyl-1H-pyrrolo[2,3-b]pyridin-2-yl)methyl)piperidin-4-yl)benzoyl)piperidin-4-yl)methyl)piperazin-1-yl)-3-fluorophenyl)amino)piperidine-2,6-dione], the Emax lay in the range of 30 to 40%.

For the compound `Cc1cc(C(=O)N2CCC(CN3CCN(c4ccc(NC5CCC(=O)NC5=O)cc4F)CC3)CC2)ccc1C1=CCN(Cc2cc3c(-c4ccc(N)nc4)ccnc3n2C)CC1` (stereo not shown) [Example 2c9, 3-((4-(4-((1-(4-(1-((4-(6-aminopyridin-3-yl)-1-methyl-1H-pyrrolo[2,3-b]pyridin-2-yl)methyl)-1,2,3,6-tetrahydropyridin-4-yl)-3-methylbenzoyl)piperidin-4-yl)methyl)piperazin-1-yl)-3-fluorophenyl)-amino)piperidine-2,6-dione], the Emax was in the range of 50 to 60%.
